From US9789116B2, “Compositions and methods of modulating short-chain dehydrogenase activity” (CASE WESTERN RESERVE UNIVERSITY, priority 2013, dated 2017)
Entries after “also recorded” stand apart in the source; their conditions may differ.

Legend:
[1] = tested on: C57BL/6J mice irradiated with 11Gy; experiment: Survival of irradiated mice receiving marrow allograft (Example 6); type: in vivo, mouse; settings: cohort of 3
Description: The experimental design is depicted in FIG. 50.
Under the conditions of the mouse colony during this study, control mice receiving 100,000-500,000 cells are all dead between days 4-13 of study. […] Such activity would be of particular utility in settings, such as transplantation with umbilical cord stem cells, in which donor cell numbers are limited.

[2] = tested on: mice irradiated with 11Gy; experiment: Survival of mice following bone marrow transplant (Example 11); type: in vivo, mouse
Description: A matched control cohort received injections with vehicle only. On day one mice received an infusion of donor marrow at doses of 100,000 cells; 200,000 cells; or 500,000 cells. […] Among mice receiving 200,000 donor cells, all control mice were dead by day 12.

[3] = tested on: 15-PGDH mRNA; experiment: 15-PGDH mRNA levels in colon cancer cell lines by real-time PCR; type: cell-based
Description: In these studies parental cell lines (not containing the 15-PGDH-luciferase reporter) are employed.

[4] = tested on: lethally irradiated mice; experiment: Homing of CFSE dye labeled bone marrow cells in lethally irradiated mice; type: in vivo, mouse; settings: 10 mg/kg IP
Protocol: Drugs are administered following radiation, following the transplant, and again at 8 hours after the transplant.

[5] = tested on: 15-PGDH-luciferase fusion reporter in V9m, LS174T and V503 cells; experiment: 15-PGDH-luciferase fusion gene reporter induction in colon cancer cell lines; type: cell-based
[6] = tested on: lethally irradiated mice; experiment: Blood and bone marrow recovery after transplant with 500,000 donor marrow cells; type: in vivo, mouse
[7] = tested on: FVB mice; experiment: Toxicity study in FVB mice, daily weights; type: in vivo, mouse; settings: 5 mg/kg IP twice daily for 21 days, N=6
[8] = tested on: A549 cells; experiment: PGE2 levels in medium of IL1-beta stimulated A549 cells; type: cell-based; settings: IL1-beta 23 hours, compound added for the last 5 hours
[9] = tested on: bone marrow SKL cells and stromal cells; experiment: Gene expression in bone marrow SKL and CD45(-) stromal cells of treated mice; type: in vivo, mouse
Protocol: 2 hours following the last dose bone marrow is harvested and sorted into SKL marked cells that are hematopoietic stem cell enriched and into CD45 (−) cells that are bone marrow stroma cells. RNA was extracted and gene expression determined relative to levels in mice injected with vehicle control.

[10] = tested on: FVB male mice; experiment: Dextran sodium sulfate (DSS) induced colitis; type: in vivo, mouse
[11] = tested on: lethally irradiated CD45.1 mice; experiment: Competitive bone marrow transplant, CD45.2 chimerism; type: in vivo, mouse
Protocol: On day 3 mice were sacrificed, marrow flushed and mixed at a 1:1 ratio with vehicle treated CD45.1 marrow. 2 million whole BM cells were injected into the tail vein of lethally irradiated CD45.1 mice and percent chimerism measured via flow cytometry at weeks 8, 12, 16.

[12] = tested on: C57BL/6J mice; experiment: Liver regeneration after partial hepatectomy, C57BL/6J mice; type: in vivo, mouse

## CCCC[S+]([O-])c1sc2nc(-c3cccs3)cc(-c3ccccc3)c2c1N (stereo not shown) [SW033291, 2-(butylsulfinyl)-4-phenyl-6-(thiophen-2-yl)thieno[2,3-b]pyridin-3-amine]
[1]; 1 × 10^5 cells, Day 1
  Number of mice surviving: 3
[1]; 1 × 10^5 cells, Day 2
  Number of mice surviving: 3
[1]; 1 × 10^5 cells, Day 3
  Number of mice surviving: 3
[1]; 1 × 10^5 cells, Day 4
  Number of mice surviving: 2
[1]; 1 × 10^5 cells, Day 5
  Number of mice surviving: 1
[1]; 1 × 10^5 cells, Day 6
  Number of mice surviving: 0
[1]; 2 × 10^5 cells, Day 1
  Number of mice surviving: 3
[1]; 2 × 10^5 cells, Day 2
  Number of mice surviving: 3
[1]; 2 × 10^5 cells, Day 3
  Number of mice surviving: 3
[1]; 2 × 10^5 cells, Day 4
  Number of mice surviving: 3
[1]; 2 × 10^5 cells, Day 5
  Number of mice surviving: 3
[1]; 2 × 10^5 cells, Day 6
  Number of mice surviving: 2
[1]; 2 × 10^5 cells, Day 7
  Number of mice surviving: 2
[1]; 2 × 10^5 cells, Day 8
  Number of mice surviving: 2
[1]; 2 × 10^5 cells, Day 9
  Number of mice surviving: 2
[1]; 2 × 10^5 cells, Day 10
  Number of mice surviving: 2
[1]; 2 × 10^5 cells, Day 11
  Number of mice surviving: 2
[1]; 2 × 10^5 cells, Day 12
  Number of mice surviving: 1
[1]; 2 × 10^5 cells, Day 13
  Number of mice surviving: 0
[1]; 5 × 10^5 cells, Day 1
  Number of mice surviving: 3
[1]; 5 × 10^5 cells, Day 2
  Number of mice surviving: 3
[1]; 5 × 10^5 cells, Day 3
  Number of mice surviving: 3
[1]; 5 × 10^5 cells, Day 4
  Number of mice surviving: 3
[1]; 5 × 10^5 cells, Day 5
  Number of mice surviving: 3
[1]; 5 × 10^5 cells, Day 6
  Number of mice surviving: 3
[1]; 5 × 10^5 cells, Day 7
  Number of mice surviving: 3
[1]; 5 × 10^5 cells, Day 8
  Number of mice surviving: 2
[1]; 5 × 10^5 cells, Day 9
  Number of mice surviving: 2
[1]; 5 × 10^5 cells, Day 10
  Number of mice surviving: 2
[1]; 5 × 10^5 cells, Day 11
  Number of mice surviving: 2
[1]; 5 × 10^5 cells, Day 12
  Number of mice surviving: 2
[1]; 5 × 10^5 cells, Day 13
  Number of mice surviving: 2
[2]; 100,000 donor cells, 5 mg/kg twice daily
  median survival: approximate doubling of median survival
[2]; 200,000 donor cells, 30 days of observation
  survival: survived at 30 days of observation
[2]; 500,000 donor cells, day 30
  survival: all survived
[3]; V503 cells
  15-PGDH mRNA levels: slight increase in 15-PGDH mRNA
[3]; treated colon cancer cell lines, real-time PCR
  15-PGDH mRNA levels: do not in general alter 15-PGDH mRNA levels
[4]; FIG. 88
  increase in numbers of homed cells in recipient bone marrow: 3 fold
[4]; FIG. 90
  increase in numbers of homed cells in recipient bone marrow: 2 fold
[4]; FIG. 140
  increase in numbers of homed donor cells in recipient bone marrow: approximately 2.5 fold
[5]; 24 hours, three cell line backgrounds
  exposure needed for maximal reporter induction: 80 to 160 nM
[5]; V9m, LS174T, V503, various concentrations
  luciferase activity of 15-PGDH luciferase fusion cells: increase luciferase activity
[6]; day 5 after transplant
  total platelet count: significantly higher total platelet count
  total white count: significantly higher total white count
[6]; day 8 after transplant
  platelet count: 77,000 platelets
[6]; day 12 after transplant
  neutrophil count: 332 neutrophils
  total white counts: significantly higher total white counts; also recorded: significantly greater total white counts
[6]; day 18 after transplant
  lymphocyte count: significantly higher
  neutrophil count: 835 neutrophils
  platelet counts: significantly higher platelet counts
  total white count: significantly higher total white count
[7]
  mouse weight gain: no evidence for SW033291 reducing mouse weight
[8]
  15-PGDH activity in cells as reflected in PGE2 levels in medium: clear inhibition of 15-PGDH activity in the cells
[9]
  induction of CXCL12: greater than 4 fold
  induction of SCF: greater than 4 fold
[10]; 22 days, P=0.001
  change from baseline weight: greater weight at all time points
[10]; colonoscopy days 8, 11, 15
  colon ulcer formation: prevents two-thirds of ulcer formation
[10]; day 15, P=0.045
  reduction of length of ulcerated mucosa versus control: 61%
[10]; day 22
  body weight and colon length: greater body weight and greater colon lengths
[10]; days 8, 11 and 15
  MEICS scores: significantly less colitis activity
[11]; donor 5 mg/kg IP daily for 3 doses, weeks 12 and 16
  percent blood chimerism of CD45.2 marked cells: significantly increased
[11]; week 16
  contribution to B and T cell populations: significant increase in contribution to B and T cell populations
[12]; 5 mg/kg IP daily, post-operative days 3 and 4
  mitosis per high powered field in liver: significantly increased hepatic mitosis; also recorded: significantly increased numbers of mitotic liver cells
[12]; one mouse each, 5 mg/kg IP bid, post-operative days 1-7
  serum ALT levels: lower
